Laboratory results published in patent publication US20260364214A1, “MULTIVALENT FIBROBLAST ACTIVATION PROTEIN LIGANDS FOR TARGETED DELIVERY APPLICATIONS” (Philochem AG, priority 2022, published 2026).

Key:
recombinant hFAP = target: T1, recombinant hFAP (Homo sapiens, UniProt Q12884); assay: hFAP inhibition assay (Z-Gly-Pro-AMC substrate); format: biochemical
T1 sequence (Q12884 26-760 limits assumed): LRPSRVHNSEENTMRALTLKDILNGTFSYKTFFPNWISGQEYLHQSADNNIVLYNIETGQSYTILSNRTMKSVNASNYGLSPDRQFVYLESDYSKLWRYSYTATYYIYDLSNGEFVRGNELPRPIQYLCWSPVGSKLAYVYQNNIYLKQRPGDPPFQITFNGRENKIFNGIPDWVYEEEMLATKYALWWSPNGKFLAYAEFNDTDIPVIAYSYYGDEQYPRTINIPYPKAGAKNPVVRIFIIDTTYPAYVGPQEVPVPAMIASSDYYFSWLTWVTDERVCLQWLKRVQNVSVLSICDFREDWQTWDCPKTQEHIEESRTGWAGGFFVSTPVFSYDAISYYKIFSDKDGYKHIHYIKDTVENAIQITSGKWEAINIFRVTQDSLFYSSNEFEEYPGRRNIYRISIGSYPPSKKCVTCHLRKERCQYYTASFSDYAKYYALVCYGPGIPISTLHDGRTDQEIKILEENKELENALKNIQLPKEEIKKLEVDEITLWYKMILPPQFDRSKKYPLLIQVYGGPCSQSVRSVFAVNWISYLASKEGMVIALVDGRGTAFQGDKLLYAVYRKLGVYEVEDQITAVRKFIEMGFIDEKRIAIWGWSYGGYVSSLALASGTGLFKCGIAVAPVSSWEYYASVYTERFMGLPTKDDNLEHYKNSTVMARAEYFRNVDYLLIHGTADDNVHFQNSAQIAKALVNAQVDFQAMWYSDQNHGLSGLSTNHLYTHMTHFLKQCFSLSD
Protocol: (§1) Enzymatic activity of hFAP on the Z-Gly-Pro-AMC substrate was measured at room temperature on a microtiter plate reader, monitoring the fluorescence at an excitation wavelength of 360 nm and an emission wavelength of 465 nm. The reaction mixture contained substrate (20 μM), protein (66 μM, constant), assay buffer (50 mM Tris, 100 mM NaCl, and 1 mM EDTA, pH=7.4), and inhibitors with serial dilution from 167 nM to 80 fM, 1:2 in a total volume of 20 μL. Experiments were performed in triplicate, and the mean fluorescence values were fitted using Prism 7. The value is defined as the concentration of inhibitor required to reduce the enzyme activity by 50% after addition of the substrate [FIG. 1 and FIG. 8].
According to the same procedure, further comparative inhibition assays with trimeric binders having inter alia different lengths of linker group B and/or different payload groups C were performed with compounds Tri-ESV6-ValCit-MMAE (14), Tri-ESV6-linker-DOTAGA (13) and diastereoisomers of Tri-ESV6-DOTAGA (11, 12) [FIG. 18]. Comparative hFAP inhibition assays with tetravalent binders 10 and 29 were also performed [FIG. 20].
as §1, with “substrate.” for “substrate [FIG. 1 and FIG. 8].”
as §1, with “e) Inhibition assay with Tri-ESV6-DOTAGA, Tetra-ESV6-DOTAGA, Hexa-ESV6-DOTAGA, Octa-ESV6-DOTAGA, ESV6-L-DOTAGA and BI-ESV6-L-DOTAGA. Enzymatic” for “Enzymatic”, “substrate.” for “substrate [FIG. 1 and FIG. 8].”

SK-RC-52.hFAP tumors = assay: 177Lu biodistribution at different radioisotope molar activities; format: in vivo, mouse; conditions: 0.2 vs 4.8 MBq/nmol; 24 h post injection
Protocol: Prior to the biodistribution study at different specific activities (FIG. 19), precursors (20 nmol) were dissolved in milliQ water and diluted with sodium acetate (1 M in water, pH=4.5). ^177Lu solution (4 or 96 MBq) were added and the mixture was heated at 90 °C for 10 minutes, followed by dilution with PBS to achieve final volume of 400 μL (4 doses of 100 μL each, corresponding to 0.2 MBq/nmol and 4.8MBq/nmol, respectively).
Results of the ^177Lu biodistribution study at different specific activities: low (0.2 MBq/nmol) and high (4.8 MBq/nmol) with ^177Lu Tri-ESV6-DOTAGA are shown in FIG. 19.

SMILES | IC50 (recombinant hFAP; Z-Gly-Pro-AMC 20 μM, protein 66 μM, pH 7.4, room temperature) | IC50 / inhibitory activity, comparison in words (recombinant hFAP; recombinant hFAP) | lower IC50 compared to Tri-ESV6-PEG12-DOTAGA (recombinant hFAP; vs Tri-ESV6-PEG12-DOTAGA) | improvement in IC50 as compared to Bi-ESV6-DOTAGA (recombinant hFAP; vs bivalent Bi-ESV6-DOTAGA) | improvement in IC50 as compared to ESV6-DOTAGA (recombinant hFAP; vs monovalent ESV6-DOTAGA) | effect of molar activity on biodistribution, in words (SK-RC-52.hFAP tumors)
N#C[C@@H]1CC(F)(F)CN1C(=O)CNC(=O)c1ccnc2c(NC(=O)CCC(=O)NCCNC(=O)CCOCC(COCCC(=O)NCCNC(=O)CCC(=O)Nc3cccc4c(C(=O)NCC(=O)N5CC(F)(F)C[C@H]5C#N)ccnc34)(COCCC(=O)NCCNC(=O)CCC(=O)Nc3cccc4c(C(=O)NCC(=O)N5CC(F)(F)C[C@H]5C#N)ccnc34)NC(=O)CCC(C(=O)O)N3CCN(CC(=O)O)CCN(CC(=O)O)CCN(CC(=O)O)CC3)cccc12 (stereo partly drawn) [Tri-ESV6-DOTAGA, 2,2′,2″-(10-(19-carboxy-1-((4-((2-((S)-2-cyano-4,4-difluoropyrrolidin-1-yl)-2-oxoethyl)carbamoyl)quinolin-8-yl)amino)-14,14-bis((3-((2-(4-((4-((2-((S)-2-cyano-4,4-difluoropyrrolidin-1-yl)-2-oxoethyl)carbamoyl)quinolin-8-yl)amino)-4-oxobutanamido)ethyl)amino)-3-oxopropoxy)methyl)-1,4,9,16-tetraoxo-12-oxa-5,8,15-triazanonadecan-19-yl)-1,4,7,10-tetraazacyclododecane-1,4,7-triyl)triacetic acid] | 0.012 nM | remarkably lower IC50 compared to ESV6-DOTAGA, Bi-ESV6-DOTAGA and FAP-2286 | ~ 1000 fold | 10 fold | 43 fold | –
N#CC1CC(F)(F)CN1C(=O)CNC(=O)c1ccnc2c(NC(=O)CCC(=O)NCCNC(=O)CCOCC(COCCC(=O)NCCNC(=O)CCC(=O)Nc3cccc4c(C(=O)NCC(=O)N5CC(F)(F)CC5C#N)ccnc34)(COCCC(=O)NCCNC(=O)CCC(=O)Nc3cccc4c(C(=O)NCC(=O)N5CC(F)(F)CC5C#N)ccnc34)NC(=O)CCC(C(=O)O)N3CCN(CC(=O)[O-])CCN(CC(=O)[O-])CCN(CC(=O)[O-])CC3)cccc12.[177Lu+3] (stereo not drawn) [^177Lu-Tri-ESV6-DOTAGA] | – | – | – | – | – | does not significantly interfere with the advantageous biodistribution
